From publication PMC12135066, “Design and Preclinical Evaluation of Novel uPAR-Targeting Radiopeptides Modified with an Albumin-Binding Entity” (Molecular Pharmaceutics, 2025)

How the values were obtained:
[1] = Biodistribution studies in HEK-uPAR xenograft-bearing nude mice; conditions: female, mouse, 0.5 nmol, total radioactivity, 5 MBq, 0.5 nmol, decay-corrected, average ± SD, n=3 animals; for tissue uptake at 4 h: 4 h p.i.; for tissue uptake at 24 h: 24 h p.i.
Experimental: (§1) All applicable international, national, and/or institutional guidelines for the care and use of laboratory animals were followed, and the herein reported experiments were carried out according to the guidelines of the Swiss Regulations for Animal Welfare. The preclinical studies were ethically approved by the Cantonal Committee of Animal Experimentation and permitted by the responsible cantonal authorities (License No. 75721). Five-week-old female CD1/nude (Crl:CD1-Foxn ^ nu ) and female immunocompetent FVB (FVB/NCrl) mice were obtained from Charles River Laboratories (Sulzfeld, Germany). All mice were acclimatized for at least 7 days, receiving standard rodent chow ad libitum before being included in the reported studies. The CD1/nude mice were subcutaneously inoculated with HEK-uPAR cells (7 × 10^6 cells in 100 μL PBS) on the right shoulder. […] Typically, it took 3–11 weeks to reach xenograft volumes of 40–600 mm^3 at the time of testing the tissue distribution of the radiopeptides. The immunocompetent FVB mice were used for testing the in vivo stability of the radiopeptides.
(§2) The mice were injected with the radiopeptides (5 MBq, 0.5 nmol, 100 μL) in saline containing 0.05% BSA and sacrificed at 4 and 24 h after injection of the radiopeptides. Selected tissues and organs were collected, weighed, and measured with the γ-counter (1480 Wizard, PerkinElmer). […] A p-value of <0.05 was considered a statistically significant difference (GraphPad Prism software, version 8.3.1).
(§3) Decay-corrected data is shown as average ± SD of n = 3 animals of % injected activity per gram (IA/g) tissue.

[2] = test system: HEK-uPAR xenograft-bearing nude mice; test: as above; conditions: average ± SD, n=3 animals
Experimental: as §1, §2, §3

[3] = Radiolytic stability of the radiopeptides in saline with L-ascorbic acid; conditions: 50 MBq/nmol in saline, 150 MBq/300 µL, L-ascorbic acid (3 mg, 20 µL) and NaOAc (0.5 M, 30 µL), HPLC, product peak relative to t=0 (100%), average ± SD, n=3
Experimental: The radiolytic stability of the radiopeptides (50 MBq/nmol) in saline (150 MBq/300 μL) was assessed in the absence and presence of L-ascorbic acid (3 mg added in a volume of 20 μL). After an incubation period of 1, 4, and 24 h, aliquots of the solutions were analyzed using HPLC. The integrated peak area representing the intact radiopeptide was expressed as the percentage of the sum of all peaks of the chromatogram. The final amount of intact radiopeptide was expressed as the percentage of the product peak obtained at t = 0, which was set as 100% (Supporting Information).
The radiolytic stability of [177Lu]Lu-DOTA-AE105 and the new 177Lu-labeled uPAR-targeting
radiopeptides (50 MBq/nmol) was assessed in vitro in the formulated solution . The radiopeptide s were
diluted in saline to obtain an activity concentration of 150 MBq in 300 µL in the presence of L-ascorbic
acid (3 mg, 20 µL) and NaOAc (0.5 M, 30 µL) to compensate for the acidic pH. Aliquots of the dilutions
were analyzed using HPLC after incubation periods of 1 h, 4 h and 24 h . The integrated peak area
measured for the intact radioligand peak was expressed as the percentage of the sum of the integrated
peak areas of each peak present in the chromatogram. The final amount of intact radiopeptide at t = 1 h,
4 h and 24 h was expressed by correcting the obtained percentage of the product peak to this peak
obtained at t = 0, which was set as 100%.

[4] = test system: mouse serum albumin (MSA); test: Albumin-binding properties in mouse blood plasma (ultrafiltration assay); conditions: ultrafiltration (Amicon, 10 kDa), mouse blood plasma dilutions in PBS pH 7.4, [MSA]-to-[radiopeptide] 0.01–12500, 0.006 nmol, 37 °C 30 min, γ-counter; inverse ratio of B50, [177Lu]Lu-uPAR-01 set as 1.00; average curve of 3 experiments
Experimental: (§4) The relative albumin-binding affinities of the radiopeptides in mouse and human blood plasma were determined using an ultrafiltration assay with Amicon centrifugal filters (cutoff of 10 kDa; Merck Millipore), as previously reported (Supporting Information). A fixed amount of the respective radiopeptide (15 μL, ∼300 kBq, 0.006 nmol) was added to a defined volume (150 μL) of mouse and human blood plasma dilutions to obtain [mouse serum albumin (MSA)]-to-[radiopeptide] and [human serum albumin (HSA)]-to-[radiopeptide] molar concentration ratios of 0.01–12,500 and 0.01–20,000, respectively. The data were analyzed using a semilogarithmic Hill plot with the maximum binding set as 100% (GraphPad Prism software, version 8.3.1).
(§5) Determination of the Albumin-Binding Properties
(§6) Purpose: The radiopeptides were investigated with regard to their albumin-binding capabilities in vitro
(§7) as a measure to predict blood retention in vivo.
(§8) Methods: The relative albumin-binding affinity of the radiopeptides in mouse blood plasma (Rockland
(§9) Immunochemicals, Inc., U.S.A.) and human blood plasma (Stiftung Blutspende SRK Aargau-
(§10) Solothurn, Switzerland) were determined using an ultrafiltration method. The amount of mouse serum
(§11) albumin (MSA) and human serum albumin (HSA) in mouse and human blood plasma was defined as
(§12) 550 μM and 800 μM, respectively, based on measurements using a dry chemistry analyzer (DRI-CHEM
(§13) 4000i, FUJIFILM, Japan). A fixed amount of radiopeptide (50 MBq/nmol, ~300 kBq, 15 μL, 0.006
(§14) nmol) was added to a defined volume (150 μL) of mouse and human blood plasma and various dilutions
(§15) thereof in PBS pH 7.4, resulting in defined [MSA]-to-[radiopeptide] or [HSA]-to-[radiopeptide] molar
(§16) concentration ratios ranging from 0.01 ‒12500 and 0.01‒20000, respectively, followed by incubation of
(§17) the samples at 37 °C for 30 min. Ice-cold PBS (150 µL, pH 7.4) was added before loading the blood
(§18) plasma samples on Amicon centrifugal filters (cut -off of 10 kDa; Merck Millipore) followed by
(§19) centrifugation (14000 rcf, 30 min, 4 °C) to allow the separation of the plasma protein -bound from the
(§20) plasma-unbound (free) fractions of each sample. The inserts of the filter devices were inverted and centrifuged at 200 rcf for 3 min to recover the protein -bound radiopeptide. The activity in the filtrate
(§21) and filter unit was measured in a γ-counter (1480 Wizard, PerkinElmer) and the counts were combined
(§22) assuming that the fraction retained in the filter membrane was not bound to proteins. The protein -bound
(§23) fraction was expressed as percentage of the whole activity (i.e. plasma protein -bound activity, activity
(§24) measured in the filtrate and activity measured in the filter (set as 100%) ). The data were analyzed using
(§25) a semi-logarithmic plot assuming a maximum binding of 100%. The Hill equation was fitted to the data
(§26) points and the half -maximum binding ( B50) based on the average curve obtained from three independent
(§27) experiments (GraphPad Prism software, version 8.3 .1). The relative albumin-binding affinit ies of the
(§28) reference compound, whose relative binding affinity was set as 1.0. The results were presented as the
(§29) B50 value obtained from the average curve from 3 independent experiments.

human uPAR = molecular target: T1, human uPAR (Homo sapiens, UniProt Q03405); test: uPAR-binding affinity (KD values), saturation experiments with HEK-uPAR cells; conditions: saturation binding on HEK-uPAR cells, on ice (4 °C) 1 h, 1–1600 nM radiopeptide, ± AE105 40 µM; γ-counter; nonlinear regression; average ± SD, n=3
T1 construct: host or cells: HEK cells (HEK-uPAR)
T1 sequence (Q03405 23-335): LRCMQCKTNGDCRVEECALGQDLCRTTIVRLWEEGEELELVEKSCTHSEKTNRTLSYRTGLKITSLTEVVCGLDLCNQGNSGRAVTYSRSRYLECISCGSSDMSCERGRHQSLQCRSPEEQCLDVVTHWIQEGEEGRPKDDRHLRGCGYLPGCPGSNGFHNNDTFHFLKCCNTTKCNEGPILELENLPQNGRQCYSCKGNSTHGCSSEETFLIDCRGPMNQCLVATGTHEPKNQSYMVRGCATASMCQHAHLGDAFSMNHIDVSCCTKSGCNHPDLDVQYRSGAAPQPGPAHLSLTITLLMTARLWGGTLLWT
Experimental: To determine the uPAR-binding affinity of the radiopeptides, saturation experiments were performed using HEK-uPAR cells in 48-well plates (Supporting Information). The cells were incubated on ice for 1 h in the presence or absence of excess AE105 (final concentration of 40 μM) together with the respective radiopeptide at a concentration range of 1–1600 nM. After rinsing the cells with PBS, they were lysed with an aqueous NaOH solution (1 M, 600 μL), transferred to radioimmunoassay tubes, and measured in a γ-counter (1480 Wizard, PerkinElmer). The K D values were determined by plotting the specific binding (values of samples incubated without AE105 minus the values of samples incubated with AE105) against the molar concentration of the added peptide. A nonlinear regression analysis was performed using GraphPad Prism software (version 8.3.1). The results were expressed as average ± SD of n = 3 independently performed experiments. […]
7. Determination of uPAR-Binding Affinity (KD Values)
Purpose: The uPAR-binding affinity of the radiopeptides were determined to investigate the impact of structural changes on the receptor binding.
Methods: HEK-uPAR cells were seeded in poly-D-lysine-coated 48-well plates (0.25 × 10 6 in 0.5 mL per well) using DMEM cell culture medium with supplements. The cells were incubated at 37 °C and 5% CO2 overnight to allow adhesion and growth. After removing the supernatant, the well plates with HEK-uPAR cells were placed on ice to prevent internalization of the radiopeptides. The cells were rinsed with cold PBS (0.5 mL, pH 7.4) followed by the addition of DMEM cell culture medium without supplements (450 µL/well) in the presence or absence of AE105 ( final concentration 40 µM) as a receptor-blocking agent. The radiopeptides (5 MBq/nmol) were diluted in PBS to obtain peptide concentrations ranging from 10 ‒16000 nM. From each dilution, 50 µL were added to each well to obtain final peptide concentrations of 1 nM to 1600 nM. The cells were incubated at 4 °C for 1 h before rinsing twice with PBS (0.5 mL, pH 7.4). The cells were lysed using an aqueous NaOH solution (1 M, 600 µL) and the lysates were transferred to RIA tubes for counting the activity in a γ-counter (1480 Wizard, PerkinElmer) . The KD values were determined by plotting specific binding (total binding minus unspecific binding) against the molar concentration of the added radiopeptide using GraphPad Prism (version 8.3.1). the results were then expressed as average K D values ± SD of n = 3 independent […]
Results: The results are reported in the main article.

[5] = n-Octanol/PBS distribution coefficients (logD values); conditions: n-octanol/PBS pH 7.4, pH 7.4
Experimental: The radiopeptides diluted in phosphate-buffered saline (PBS) pH 7.4 (25 μL, ∼0.5 MBq, 0.01 nmol) were added to a mixture of PBS pH 7.4 (1475 μL) and n-octanol (1500 μL). The vials were vortexed vigorously for 1 min, followed by centrifugation (560 rcf, 6 min) for phase separation. Aliquots were taken from each phase and measured in a γ-counter (1480 Wizard, PerkinElmer). The distribution coefficients were calculated as the logarithmic value of the ratio of counts per minute (cpm) measured in the n-octanol phase relative to the cpm measured in the PBS phase.
Methods: The logD value of all radiopeptides was determined in a mixture of n-octanol and phosphate
buffered saline (PBS) pH 7.4 using phase separation followed by liquid-liquid extraction.
polystyrene radioimmunoassay (RIA) tubes were prepared for each radiopeptide with 1.5 mL n-octanol
and 1.475 mL PBS pH 7.4. The RIA tubes were rigorously vortexed and subsequently let to stand so
that the phase separation could take place. The radiopeptides (50 MBq/nmol) were diluted with PBS
pH 7.4 to obtain an activity concentration of 10 MBq/0.5 mL. A volume of 25 μL of these solutions
was added to each RIA tube (25 µL, ~0.5 MBq, 0.01 nmol) followed by vortexing for 1 min.
separation was achieved by centrifugation at 560 rcf for 6 min. The activity in the n-octanol and PBS
phase, respectively, was measured in a γ-counter (Wallac Wizard 1480, PerkinElmer).
coefficients were calculated as the logarithm of the ratio of counts per minute (cpm) measured in the n-
octanol phase relative to the cpm measured in the PBS pH 7.4 phase.
as described above three independent times for each radiopeptide.

[6] = test system: human serum albumin (HSA); test: Albumin-binding properties in human blood plasma (ultrafiltration assay); conditions: ultrafiltration (Amicon, 10 kDa), human blood plasma dilutions in PBS pH 7.4, [HSA]-to-[radiopeptide] 0.01–20000, 0.006 nmol, 37 °C 30 min, γ-counter; inverse ratio of B50, [177Lu]Lu-uPAR-01 set as 1.00; average curve of 3 experiments
Experimental: as §4, §5, §6, §7, §8, §9, §10, §11, §12, §13, §14, §15, §16, §17, §18, §19, §20, §21, §22, §23, §24, §25, §26, §27, §28, §29

[7] = Stability of the radiopeptides in mouse blood plasma
Experimental: The radiopeptides (50 MBq/nmol) stabilized with L-ascorbic acid were diluted in mouse and human blood plasma and incubated at 37 °C. Aliquots were taken after 1, 4, and 24 h and analyzed using reversed-phase thin-layer chromatography (TLC) (Supporting Information).
aProduct peak expressed as percentage of the sum of integrated peak areas of the entire chromatogram relative to
the value obtained immediately after labeling (set as 100%), average ± standard deviation (SD) (n=3).
Stability of the Radiopeptides in Mouse and Human Blood Plasma
Purpose: The stability of the radiopeptides was assessed in mouse and human blood plasma as an
indication for their in vivo stability.
Methods: The radiopeptides (50 MBq/nmol) stabilized with L-ascorbic acid were diluted in mouse
blood plasma (Lot: 32321, Rockland Immunochemicals Inc., U.S.A.) or in human blood plasma
(Stiftung Blutspende SRK Aargau -Solothurn, Switzerland) at a concentration of 10 MBq/200 µL and
incubated at 37 °C over a 24 h time period. Control samples were prepared by diluting the radiopeptides
in saline at the same activity concentration. Aliquots of each dilution were taken after 1 h, 4 h, and 24 h
(2 µL, ~100 kBq) and investigated employing thin layer chromatography (TLC) methods on reversed-
phase TLC plates (MERCK Analytical Chromatography, TLC Silica gel 60 RP -18 F254s) as stationary
phase and a 3/7 (v/v) mixture of acetonitrile /citrate buffer (0.1 M, pH 5.5) as mobile phase. A dilution
of [177Lu]LuCl3/HCl 0.04 M (10 MBq/200 µL) was added on each TLC plate. The developed and dried
TLC plates were exposed to a phosphor screen (Super resolution screen PSR10450013, PerkinElmer)
for 1 min. The screen was read with a Cyclone Plus phosphor imager (PerkinElmer) and the peak
quantification was performed using OptiQuant Software (version 5.0).

[8] = CD1/nude (Crl:CD1-Foxn nu), HEK-uPAR xenograft, HEK-uPAR xgft
[9] = CD1/nude (Crl:CD1-Foxn nu), liver, Liver
[10] = CD1/nude, blood, 5 MBq (0.5 nmol)
[11] = CD1/nude, bone, 5 MBq (0.5 nmol)
[12] = CD1/nude, brain, 5 MBq (0.5 nmol)
[13] = CD1/nude, heart, 5 MBq (0.5 nmol)
[14] = CD1/nude, intestines, 5 MBq (0.5 nmol)
[15] = CD1/nude, kidneys, 5 MBq (0.5 nmol)
[16] = CD1/nude, liver, 5 MBq (0.5 nmol)
[17] = CD1/nude, lung, 5 MBq (0.5 nmol)
[18] = CD1/nude, muscle, 5 MBq (0.5 nmol)
[19] = CD1/nude, pancreas, 5 MBq (0.5 nmol)
[20] = CD1/nude, salivary glands, 5 MBq (0.5 nmol)
[21] = CD1/nude, spleen, 5 MBq (0.5 nmol)
[22] = CD1/nude, stomach, 5 MBq (0.5 nmol)

tissue uptake at 4 h [1, 8]: < 1 %ID/g
tissue uptake at 24 h [1, 8]: 0.4 ± 0.19 %ID/g
tissue uptake at 4 h [1, 9]: < 0.2 %ID/g
tissue uptake at 24 h [1, 9]: < 0.2 %ID/g
tissue uptake at 4 h ([1]; CD1/nude (Crl:CD1-Foxn nu), whole blood, Blood): < 0.1 %ID/g
tissue uptake at 4 h [1, 10]: 0.08 ± 0.01 %ID/g
tissue uptake at 24 h [1, 10]: < 0.05 %ID/g
tissue uptake at 4 h [1, 11]: 0.38 ± 0.03 %ID/g
tissue uptake at 24 h [1, 11]: 0.84 ± 0.1 %ID/g
tissue uptake at 4 h [1, 12]: < 0.05 %ID/g
tissue uptake at 24 h [1, 12]: < 0.05 %ID/g
tissue uptake at 4 h [1, 13]: 0.06 ± 0.01 %ID/g
tissue uptake at 24 h [1, 13]: < 0.05 %ID/g
tissue uptake at 4 h [1, 14]: 0.31 ± 0.03 %ID/g
tissue uptake at 24 h [1, 14]: 0.18 ± 0.02 %ID/g
tissue uptake at 4 h [1, 15]: 1.5 ± 0.1 %ID/g
tissue uptake at 24 h [1, 15]: 1.3 ± 0.1 %ID/g
tissue uptake at 4 h [1, 16]: 0.1 ± 0.01 %ID/g
tissue uptake at 24 h [1, 16]: 0.17 ± 0.01 %ID/g
tissue uptake at 4 h [1, 17]: 0.3 ± 0.02 %ID/g
tissue uptake at 24 h [1, 17]: 0.21 ± 0.01 %ID/g
tissue uptake at 4 h [1, 18]: < 0.05 %ID/g
tissue uptake at 24 h [1, 18]: < 0.05 %ID/g
tissue uptake at 4 h [1, 19]: 0.06 ± 0.01 %ID/g
tissue uptake at 24 h [1, 19]: 0.06 ± 0.01 %ID/g
tissue uptake at 4 h [1, 20]: 0.09 ± 0.01 %ID/g
tissue uptake at 24 h [1, 20]: 0.09 ± 0.01 %ID/g
tissue uptake at 4 h [1, 21]: 0.18 ± 0.02 %ID/g
tissue uptake at 24 h [1, 21]: 0.23 ± 0.04 %ID/g
tissue uptake at 4 h [1, 22]: 0.15 ± 0.03 %ID/g
tissue uptake at 24 h [1, 22]: 0.17 ± 0.03 %ID/g
HEK-uPAR xgft ([2]; 4 h p.i., 5 MBq, 0.5 nmol, decay-corrected): 0.87 ± 0.05 % IA/g
Xenograft-to-blood ratio ([2]; 4 h p.i.): 11 ± 1
Xenograft-to-kidney ratio ([2]; 4 h p.i.): 0.58 ± 0.03
Xenograft-to-liver ratio ([2]; 4 h p.i.): 8.6 ± 0.4
Xenograft-to-blood ratio ([2]; 24 h p.i.): 32 ± 13
Xenograft-to-kidney ratio ([2]; 24 h p.i.): 0.33 ± 0.14
Xenograft-to-liver ratio ([2]; 24 h p.i.): 2.4 ± 0.9
radiolytic stability, % intact radiopeptide ([3]; 1 h): 98 ± 2%
radiolytic stability, % intact radiopeptide ([3]; 4 h): 98 ± 1%
Relative albumin-binding affinity, mouse blood plasma [4]: 0.02
Kd (human uPAR): 20 ± 1 nM
logD [5]: -1.38 ± 0.18
Relative albumin-binding affinity, human blood plasma [6]: 0.01
Intact radiopeptide in mouse blood plasma [%] ([7]; 24 h, mouse blood plasma, 10 MBq/200 µL, 50 MBq/nmol, stabilized with L-ascorbic acid, 37 °C, reversed-phase TLC, phosphor imager, relative to t=0 (100%), average ± SD, n=3): ~4.5%
remaining at 1 h, 10 MBq/200 µL ([7]; mouse, blood plasma): 61 ± 6%
remaining at 24 h, 10 MBq/200 µL ([7]; mouse, blood plasma): 4.6 ± 2.2%
remaining at 4 h, 10 MBq/200 µL ([7]; mouse, mouse blood plasma): ~13%
SMILES: CC(C)C[C@H](NC(=O)[C@H](Cc1ccc(O)cc1)NC(=O)[C@@H](CCCNC(=N)N)NC(=O)[C@@H](CO)NC(=O)[C@H](Cc1ccccc1)NC(=O)[C@H](CC1CCCCC1)NC(=O)[C@H](CC(=O)O)NC(=O)CN1CCN(CC(=O)O)CCN(CC(=O)O)CCN(CC(=O)O)CC1)C(=O)N[C@@H](Cc1c[nH]c2ccccc12)C(=O)N[C@@H](CO)C(N)=O [[^177Lu]Lu-DOTA-AE105, metal not drawn, reference compound]
